According to the supplement of paper PMC10307832:

Legend:
Test in all cases: relative viability (nuclei count vs DMSO), 5 days (fraction); higher = more cells survive
[1] = tested on: NCI-H2347
Method in brief: (§1)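 Values are medians from duplicate plates. Each reflects relative viability, defined as the nuclei count of treated wells over that of vehicle wells. Lung cancer cell lines in 1536-well plates were pin-tool dosed one day after seeding with one drug alone or with a fixed anchor-drug dose plus five library-drug doses (not always all listed) in √10 steps, then fixed, stained and imaged at 4× after 5 days.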

[2] = tested on: SW 900
Method in brief: as §1

[3] = tested on: NCI-H460
Method in brief: as §1

[4] = tested on: A-427
Method in brief: as §1

[5] = tested on: SW 1573
Method in brief: as §1

[6] = tested on: 201T
Method in brief: as §1

[7] = tested on: NCI-H1793
Method in brief: as §1

[8] = tested on: HCC-44
Method in brief: as §1

[9] = tested on: LU99A
Method in brief: as §1

[10] = tested on: LC-2-ad
Method in brief: as §1

[11] = tested on: NCI-H1650
Method in brief: as §1

For `COc1cc2nccc(Oc3ccc(NC(=O)Nc4cc(C)on4)c(Cl)c3)c2cc1OC` [Tivozanib] + O=C(CCCCCCC(=O)Nc1ccccc1)NO [Vorinostat] (partner 1 µM), the relative viability ([1]; first compound 0.005 µM) was 0.612, the relative viability ([1]; first compound 0.01581 µM) was 0.577 and the relative viability ([1]; first compound 0.05 µM) was 0.61. It also gave a relative viability ([1]; first compound 0.1581 µM) of 0.797, a relative viability ([1]; first compound 0.5 µM) of 0.517 and a relative viability ([2]; first compound 0.005 µM) of 0.459. The relative viability ([2]; first compound 0.01581 µM) was 0.481, the relative viability ([2]; first compound 0.05 µM) was 0.627 and the relative viability ([2]; first compound 0.5 µM) was 0.464. The relative viability ([3]; first compound 0.005 µM) was 0.651, the relative viability ([3]; first compound 0.01581 µM) was 0.741 and the relative viability ([3]; first compound 0.05 µM) was 0.748. The relative viability ([3]; first compound 0.1581 µM) was 0.76, the relative viability ([3]; first compound 0.5 µM) was 0.569 and the relative viability ([4]; first compound 0.005 µM) was 0.741. It also gave a relative viability ([4]; first compound 0.01581 µM) of 0.888, a relative viability ([4]; first compound 0.05 µM) of 0.824 and a relative viability ([4]; first compound 0.1581 µM) of 0.857. The relative viability ([4]; first compound 0.5 µM) was 0.812, the relative viability ([5]; first compound 0.005 µM) was 0.614 and the relative viability ([5]; first compound 0.01581 µM) was 0.935. It also gave a relative viability ([5]; first compound 0.05 µM) of 0.677, a relative viability ([5]; first compound 0.1581 µM) of 0.506 and a relative viability ([5]; first compound 0.5 µM) of 0.281. For the same molecule, the relative viability ([6]; first compound 0.005 µM) was 0.983, the relative viability ([6]; first compound 0.01581 µM) was 0.99 and the relative viability ([6]; first compound 0.05 µM) was 1. It also gave a relative viability ([6]; first compound 0.1581 µM) of 0.899, a relative viability ([6]; first compound 0.5 µM) of 0.974 and a relative viability ([7]; first compound 0.005 µM) of 0.606. For the same molecule, the relative viability ([7]; first compound 0.01581 µM) was 0.706, the relative viability ([7]; first compound 0.05 µM) was 0.778 and the relative viability ([7]; first compound 0.5 µM) was 0.742. For the same molecule, the relative viability ([8]; first compound 0.005 µM) was 1.03, the relative viability ([8]; first compound 0.01581 µM) was 1.09 and the relative viability ([8]; first compound 0.05 µM) was 1.1. For the same molecule, the relative viability ([8]; first compound 0.1581 µM) was 1.17, the relative viability ([8]; first compound 0.5 µM) was 1.02 and the relative viability ([9]; first compound 0.005 µM) was 0.43. The relative viability ([9]; first compound 0.01581 µM) was 0.443, the relative viability ([9]; first compound 0.05 µM) was 0.526 and the relative viability ([9]; first compound 0.1581 µM) was 0.358. It also gave a relative viability ([9]; first compound 0.5 µM) of 0.402, a relative viability ([10]; first compound 0.005 µM) of 0.704 and a relative viability ([10]; first compound 0.01581 µM) of 0.734. The relative viability ([10]; first compound 0.05 µM) was 0.694, the relative viability ([10]; first compound 0.1581 µM) was 0.592 and the relative viability ([10]; first compound 0.5 µM) was 0.34. It also gave a relative viability ([11]; first compound 0.005 µM) of 0.638 and a relative viability ([11]; first compound 0.01581 µM) of 0.529.
